Key:
[1] = system: adenocarcinomic human alveolar basal epithelial cell line A549; test: High content analysis of anti-cancer agent by cell image analysis (Experimental Example 5); type: cell-based; conditions: 0.03 (w/v)% low-molecular agar medium; for average cell number per sphere / number of average spheres per 10 mm^2 / projected area: 10 days
Procedure: By a method similar to the preparation method of medium composition in Analysis Example 1, a medium composition containing 10 (v/v) % FBS, and 0.03 (w/v) % of low-molecular agar or agar for general use in DMEM (manufactured by Wako Pure Chemical Industries, Ltd.) was prepared. Paclitaxel (manufactured by Wako Pure Chemical Industries, Ltd.) was further added to a final concentration of 0.001 μM, 0.01 μM or 0.1 μM. Successively, adenocarcinomic human alveolar basal epithelial cell line A549 (manufactured by DS PHARMA BIOMEDICAL CO., LTD.) was seeded in the above-mentioned medium composition containing low-molecular agar at 5,000 cells/mL, and dispensed to the wells of a 96 well flat bottom ultra-low attachment surface microplate (manufactured by Corning Incorporated, #3474) at 100 μL per 1 well. Successively, the plate was cultured in a standing state in a CO2 incubator (37° C., 5% CO2) for 10 days.
Then, a solution of […] of Hoechst 33342 (manufactured by Invitrogen) in DMEM (phenol red, L-glutamine free) (manufactured by Wako Pure Chemical Industries, Ltd.) was prepared, and added, at 10 μL per 1 well, to the above-mentioned culture after static culture for 10 days, and the mixture was stood in a CO2 incubator (37° C., 5% CO2) for 45 min. Successively, a solution of 20 μg/mL Propidium Iodide (manufactured by BIOMOL) in DMEM (phenol red, L-glutamine free) (manufactured by Wako Pure Chemical Industries, Ltd.) was prepared and added at 10 μL per 1 well. The plate was centrifuged at 1,500 rpm for 10 min, and high content analysis was performed by cell image analysis using a cell imaging apparatus (“ArrayScan VTI HCS Reader”, manufactured by Thermo Fisher Scientific). At that time, observation was performed with 10 fields of view per well using a ×4 objective lens, cell outline and cell nucleus were detected from Hoechst33342 fluorescence image, and dead cells were detected from propidium iodide fluorescence image. In addition, 50% inhibitory concentration (nM) of paclitaxel by high content analysis was calculated with the number of constituent cells when the anticancer agent was added at the maximum concentration as 100% inhibition rate of sphere formation.
The observed images (area per 1 field: 1 mm^2) of A549 cells cultured for 10 days in the medium composition of the present invention containing low-molecular agar, negative control and comparison control (medium composition containing deacylated gellan gum) by a cell imaging apparatus are shown in FIG. 8. In addition, number of constituent cells of A549 cell spheres (average cell number per sphere), sphere number (average sphere number per 10 mm^2), projected area of sphere (size) (μm^2), obtained from the cell imaging analysis, are shown in Table 12. As for the negative control and comparison control, the relative cell number when the amount of luminescence without addition of the anticancer agent is 1 was determined from the measurement results of the surviving cell number using the intracellular ATP as an index, and shown in Table 13. Furthermore, the 50% inhibitory concentration (nM) of paclitaxel calculated from the amount of luminescence based on intracellular ATP and high content analysis are shown in Table 14.

[2] = system: adenocarcinomic human alveolar basal epithelial cell line A549; test: High content analysis of anticancer agents by cell image analysis (Experimental Example 8); type: cell-based; conditions: for average cell number per sphere / average dead cell number in sphere / average sphere number per 20 mm^2 / projected area: 0.03 (w/v)% low-molecular agar medium, 7 days with agent;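 as to projected area: Projected area in square micrometres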
Procedure: Adenocarcinomic human alveolar basal epithelial cell line A549 (manufactured by DS PHARMA BIOMEDICAL CO., LTD.) was suspended in the above-mentioned medium composition containing low-molecular agar at 11,000 cells/mL. […] The plate was stood in a CO2 incubator (37° C., 5% CO2) overnight. The next day, paclitaxel (manufactured by Wako Pure Chemical Industries, Ltd.) and trametinib (manufactured by SANTA CRUZ) were further added by 10 μl per 1 well at a final concentration of 0.001 μM, 0.01 μM and 0.1 μM, respectively, mitomycin C (manufactured by Wako Pure Chemical Industries, Ltd.) at a final concentration of 0.005 μM, 0.05 μM and 0.5 μM, and MK2206 (manufactured by SANTA CRUZ) at a final concentration of 0.001 μM, 0.01 μM, 0.1 μM and 1 μM. Successively, the plate was further cultured in a standing state in a CO2 incubator (37° C., 5% CO2) for 7 days.
Successively, a solution of 20 μg/mL Propidium Iodide (manufactured by BIOMOL) in DMEM (phenol red, L-glutamine free) (manufactured by Wako Pure Chemical Industries, Ltd.) was prepared and added at 10 μL per 1 well, and the culture medium was suspended. The plate was centrifuged at 1,500 rpm for 1 min, and high content analysis was performed by cell image analysis using a cell imaging apparatus (“ArrayScan VTI HCS Reader”, manufactured by Thermo Fisher Scientific). At that time, observation was performed with 20 fields of view per well using a ×10 objective lens, cell outline and cell nucleus were detected from Hoechst33342 fluorescence image, and dead cells were detected from propidium iodide fluorescence image. In addition, 50% inhibitory concentration (nM) of each anticancer agent by high content analysis was calculated from the number of spheres constituted of not less than 5 cells. In this case, the value without addition of the anticancer agent was taken as 0% sphere formation inhibitory rate.

Structure (SMILES): CC(=O)O[C@H]1C(=O)[C@@]2(C)[C@H]([C@H](OC(=O)c3ccccc3)[C@]3(O)C[C@H](OC(=O)[C@H](O)[C@@H](NC(=O)c4ccccc4)c4ccccc4)C(C)=C1C3(C)C)[C@]1(OC(C)=O)CO[C@@H]1C[C@@H]2O [paclitaxel, Paclitaxel]
- IC50 ([1]; Homo sapiens, A549, high content analysis by cell image analysis, number of constituent cells, read-out: paclitaxel 50% inhibitory concentration): 1.9 nM
- average cell number per sphere ([1]; paclitaxel 0.001 μM): 5.353
- number of average spheres per 10 mm^2 ([1]; paclitaxel 0.001 μM): 39.33
- projected area ([1]; paclitaxel 0.001 μM): 1161 μm^2
- average cell number per sphere ([1]; paclitaxel 0.01 μM): 1.52
- number of average spheres per 10 mm^2 ([1]; paclitaxel 0.01 μM): 18
- projected area ([1]; paclitaxel 0.01 μM): 578 μm^2
- average cell number per sphere ([1]; paclitaxel 0.1 μM): 1.165
- number of average spheres per 10 mm^2 ([1]; paclitaxel 0.1 μM): 6.333
- projected area ([1]; paclitaxel 0.1 μM): 402 μm^2
- IC50 ([2]; Homo sapiens, A549, high content analysis by cell image analysis, number of spheres of not less than 5 cells, low-molecular agar-containing medium, read-out: 50% inhibitory concentration): 4.1 nM
- average cell number per sphere ([2]; agent 0.001 μM): 4.817
- average dead cell number in sphere ([2]; agent 0.001 μM): 0.064
- average sphere number per 20 mm^2 ([2]; agent 0.001 μM): 297.7
- projected area ([2]; agent 0.001 μM): 1271 μm^2
- average cell number per sphere ([2]; agent 0.01 μM): 2.3
- average dead cell number in sphere ([2]; agent 0.01 μM): 0.336
- average sphere number per 20 mm^2 ([2]; agent 0.01 μM): 187
- projected area ([2]; agent 0.01 μM): 797 μm^2
- average cell number per sphere ([2]; agent 0.1 μM): 1.662
- average dead cell number in sphere ([2]; agent 0.1 μM): 0.591
- average sphere number per 20 mm^2 ([2]; agent 0.1 μM): 133
- projected area ([2]; agent 0.1 μM): 647 μm^2
